In patent publication US9980948B2, “Azaindole derivative having AMPK-activating activity” (Shionogi & Co., Ltd., priority 2014, dated 2018):
Like-named read-outs stand apart in the source and are kept apart here.

Target: T1, Human AMPK α2β2γ1 (Homo sapiens, UniProt O43741+P54646)
T1 construct: The full length cDNAs of human AMPK β2 (NM_005399.3) and human AMPK α2 (NM_006252.3); The full length cDNAs of human AMPK β2 (NM_005399.3); the full length cDNA of human AMPK γ1 (NM_002733.3) had been inserted into pET28b(+); 6xHis (N); made in house; host or cells: Escherichia coli BL21 CodonPlus (DE3)-RTL (AMPK); BL21 Star (DE3) (CaMKKβ)
T1 sequence (P54646 whole entry): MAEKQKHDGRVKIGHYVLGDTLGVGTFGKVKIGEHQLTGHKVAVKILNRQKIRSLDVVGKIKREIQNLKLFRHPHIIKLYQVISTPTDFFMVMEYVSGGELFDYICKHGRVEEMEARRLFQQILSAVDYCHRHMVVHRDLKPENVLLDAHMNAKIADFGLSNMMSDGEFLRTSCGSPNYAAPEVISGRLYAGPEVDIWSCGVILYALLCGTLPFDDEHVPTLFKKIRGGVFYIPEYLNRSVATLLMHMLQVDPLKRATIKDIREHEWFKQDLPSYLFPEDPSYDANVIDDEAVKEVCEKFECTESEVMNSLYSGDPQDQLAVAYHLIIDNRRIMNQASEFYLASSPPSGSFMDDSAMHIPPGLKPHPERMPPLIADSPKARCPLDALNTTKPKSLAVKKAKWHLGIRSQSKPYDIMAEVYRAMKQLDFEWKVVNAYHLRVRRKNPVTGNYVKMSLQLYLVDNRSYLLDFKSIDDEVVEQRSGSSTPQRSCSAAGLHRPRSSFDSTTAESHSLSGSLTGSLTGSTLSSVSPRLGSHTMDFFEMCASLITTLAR
T1 sequence (O43741 whole entry): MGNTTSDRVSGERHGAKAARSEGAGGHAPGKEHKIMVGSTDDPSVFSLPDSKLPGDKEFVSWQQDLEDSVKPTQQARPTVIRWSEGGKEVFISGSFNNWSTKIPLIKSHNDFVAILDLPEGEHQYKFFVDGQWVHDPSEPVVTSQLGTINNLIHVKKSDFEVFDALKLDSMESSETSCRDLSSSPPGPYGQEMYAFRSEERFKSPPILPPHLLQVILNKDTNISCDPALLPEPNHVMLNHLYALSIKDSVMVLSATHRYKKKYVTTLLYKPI
T1 sequence (P54619 whole entry partner): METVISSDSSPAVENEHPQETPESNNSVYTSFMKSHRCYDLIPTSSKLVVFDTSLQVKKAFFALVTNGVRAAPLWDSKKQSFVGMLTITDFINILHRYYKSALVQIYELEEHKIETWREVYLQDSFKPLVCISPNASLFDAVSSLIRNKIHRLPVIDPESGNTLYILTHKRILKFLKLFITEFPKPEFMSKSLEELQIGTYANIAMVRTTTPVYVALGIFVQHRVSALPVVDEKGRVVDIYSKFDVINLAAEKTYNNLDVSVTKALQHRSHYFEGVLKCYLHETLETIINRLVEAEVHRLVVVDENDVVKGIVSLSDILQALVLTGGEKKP
Experiment: Test Example 2: evaluation of an activator for AMP-activated protein kinase (AMPK), human AMPK α2β2γ1 phosphorylated with CaMKK2, FL-Peptide 7 mobility shift
Assay type: biochemical
Conditions: for Emax: read-out: Emax (maximum rate of increase in activity within the measurement range)
Experimental: The full length cDNAs of human AMPK β2 (NM_005399.3) and human AMPK α2 (NM_006252.3) were inserted into the MCS1 and MCS2 of the pETDuet-1 vector to prepare a human AMPK β2 and human AMPK α2 (6× His tag at the 5′ terminus) expressing plasmid. The plasmid was cotransfected with an expression plasmid, in which the full length cDNA of human AMPK γ1 (NM_002733.3) had been inserted into pET28b(+), into BL21 CodonPlus (DE3)-RTL to obtain an expression strain. The expression strain was cultured in TB medium, followed by induction with 0.5 mM IPTG, and cultured at 25° C. for 3 hours and then harvested.
An expression vector, in which the full length cDNA of human CAMKK β (NM_172226.1) had been inserted into pGEX-6P-3, was transfected into BL21 Star (DE3). The expression strain was cultured in TB medium, followed by induction with 0.5 mM IPTG, and cultured at 25° C. for 3 hours and then harvested.
Thus, phosphorylation treatment was carried out as pretreatment.
Human AMPK α2β2γ1 in an amount to give a conversion rate of approximately 10% by reaction for 2 hours, and CaMKK2 in an amount capable of sufficiently imparting activity to AMPK for one hour were mixed in a buffer solution consisting of a 50 mM HEPES-NaOH buffer solution (pH 7.0), 100 mM NaCl, 5 mM magnesium chloride, 0.1% bovine serum albumin, 0.2 mM sodium orthovanadate(V), 1 mM ethylene glycol-bis(2-aminoethyl ether)-N,N,N′,N′-tetraacetic acid (EGTA), 5 mM disodium β-glycerophosphate, 1 mM dithiothreitol and 0.2 mM ATP, and the obtained liquid was left to stand at 25° C. for 1 to 1.5 hours to sufficiently phosphorylate AMPK.
The obtained liquid was left to stand for 10 minutes.
The obtained liquid was allowed to react at 25° C. for 2 hours, and 10 μl of 20 mM EDTA was then added thereto to stop the reaction.
To detect phosphorylated fluorescent substrates, the reaction liquid was applied to a measuring device, LabChip EZ Reader II manufactured by Caliper Life Science, Inc., for detecting fluorescence by using differences in mobility due to differences in charge. The setting conditions for the device were pressure, −1.5 PSI; upstream voltage, −2250 V; downstream voltage, −400 V; post sample buffer sip time, 40 seconds; final delay, 120 seconds; and peak order, Product First.
A conversion rate was calculated from the peak heights of the resulting substrate and product. The conversion rate when not containing a compound was used as a control, and a concentration dependent curve was made by plotting the rate of increase in activity to the control at each concentration of a compound.

[1] = human AMPK α2β2γ1, 0.2 mM ATP final, 25° C., 2 hours
[2] = human AMPK α2β2γ1, relative to control (100%)

Compound	EC150 (compound concentration showing 150% relative to the control (100%)) [1]	Emax [2]	Emax (maximum rate of increase in activity within the measurement range) [2]	EC150 (compound concentration showing 150% relative to the control (100%))	Emax (maximum rate of increase in activity within the measurement range)
O[C@@H]1CO[C@H]2[C@@H]1OC[C@H]2Oc1cc2nc(-c3ccc([C@H]4C[C@H](O)[C@H](O)CO4)cc3)c(F)cc2[nH]1 [Compound I-2-61-b]	6.4 nM	442%			
O[C@@H]1CO[C@H]2[C@@H]1OC[C@H]2Oc1cc2nc(-c3ccc(OCCCN4CCOCC4)cc3)c(F)cc2[nH]1 [Compound I-3-6]	74 nM	475%			
N#Cc1c(O[C@@H]2CO[C@H]3[C@@H]2OC[C@H]3O)[nH]c2cc(Cl)c(-c3ccc(-c4ccccc4)cc3)nc12 [Compound I-1-7]	59 nM	805%			
O[C@@H]1CO[C@H]2[C@@H]1OC[C@H]2Oc1cc2nc(-c3ccc([C@@H]4C[C@@H](O)[C@@H](O)CO4)cc3)c(Cl)cc2[nH]1 [Compound I-2-61-a]	6.4 nM	442%			
CCS(C)(=O)=Nc1ccc(-c2ccc(-c3nc4cc(O[C@@H]5CO[C@H]6[C@@H]5OC[C@H]6O)[nH]c4cc3F)cc2)cc1 (some centres unmarked) [Compound I-4-43]	1.3 nM	453%			
COc1cc(F)c(-c2nc3cc(O[C@@H]4CO[C@H]5[C@@H]4OC[C@H]5O)[nH]c3cc2F)c(F)c1 [Compound I-3-28]	87 nM	430%			
CN=S(C)(=O)c1ccc(-c2ccc(-c3nc4cc(O[C@@H]5CO[C@H]6[C@@H]5OC[C@H]6O)[nH]c4cc3F)cc2)cc1 (some centres unmarked) [Compound I-4-37]	1.5 nM		502%		
O[C@@H]1CO[C@H]2[C@@H]1OC[C@H]2Oc1cc2nc(-c3c(F)cc(C4=CCOCC4)cc3F)c(F)cc2[nH]1 [Compound I-1-6]	2 nM	647%			
CNS(=O)(=O)c1ccc(-c2ccc(-c3nc4cc(O[C@@H]5CO[C@H]6[C@@H]5OC[C@H]6O)[nH]c4cc3F)cc2)cc1 [Compound I-4-39]	1.9 nM	479%			
CS(=O)(=NCCO)c1ccc(-c2ccc(-c3nc4cc(O[C@@H]5CO[C@H]6[C@@H]5OC[C@H]6O)[nH]c4cc3F)cc2)cc1 (some centres unmarked) [Compound I-4-31]	3.1 nM	674%			
N#Cc1c(O[C@@H]2CO[C@H]3[C@@H]2OC[C@H]3O)[nH]c2cc(Cl)c(-c3ccc(C4=CCN(C(=O)CO)CC4)cc3)nc12 [Compound I-1-12]	23 nM	779%			
N#Cc1c(Cl)c(-c2ccc(N3CCOCC3)cc2)nc2cc(O[C@@H]3CO[C@H]4[C@@H]3OC[C@H]4O)[nH]c12 [Compound I-2-7]				36 nM	322%
CN=S(C)(=O)c1ccc(-c2ccc(-c3nc4cc(O[C@@H]5CO[C@H]6[C@@H]5OC[C@H]6O)[nH]c4cc3C(F)(F)F)cc2)cc1 (some centres unmarked) [Compound I-4-18]	9.5 nM	598%			
